Reference: US20220330549A1, “USE OF N-BENZYLBENZAMIDE-BASED COMPOUND AS HERBICIDE” (Northwest A&F University, priority 2020, published 2022)

Legend:
Assay type in all cases: in vivo
Portulaca oleracea = assay: Field test for weed control in a corn field; conditions: 150 g a.i./ha, after treatment
How it was run: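 Post-emergence weed control was evaluated in a corn field by the GB/T 17980.42-2000 method. Emulsifiable concentrates (10%) in water were applied as sprays at 150 g(a.i.)/ha at the 2-5 leaf corn stage, in four replicate 20 m^2 plots. A 25% mesotrione oil dispersion served as control agent. Effects were graded 1-9 relative to weed remaining in blank control areas.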

green bristlegrass [1] = assay: Field test for weed control in a corn field; conditions: 150 g a.i./ha, after treatment
How it was run: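 Herbicidal activity against green bristlegrass was assessed in corn field plots of 20 m^2 per GB/T 17980.42-2000. Test agents, formulated as 10% emulsifiable concentrates, were applied in water at 150 g(a.i.)/ha at the corn 2 leaves to 5 leaves stage, repeated 4 times. A 25% mesotrione oil dispersion served as the control agent, and weed damage was rated on levels 1-9.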

Barnyard grass [2] = assay: Field test for weed control in a corn field; conditions: 150 g a.i./ha, 30 days after treatment
How it was run: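 Herbicidal activity against barnyard grass was assessed in corn field plots of 20 m^2, with four replicates per treatment. Compounds were applied as water-diluted 10% emulsifiable concentrates at 150 g(a.i.)/ha at the 2-5 leaf corn stage, with 25% mesotrione oil dispersion as the reference agent. Damage was scored on a 1-9 scale against untreated blank plots.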

nutgrass flatsedge = assay: Field test for weed control in a corn field; conditions: 150 g a.i./ha, after treatment
How it was run: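 Herbicidal effect on nutgrass flatsedge was measured in a field planted with corn, using the GB/T 17980.42-2000 method. Emulsifiable concentrates (10%) in water were sprayed at 150 g(a.i.)/ha during the 2-leaf to 5-leaf corn stage, on 20 m^2 plots repeated 4 times. 25% mesotrione oil dispersion was the control agent. Activity was scored from 1 to 9 by weed remaining relative to blank control plots.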

Solanum nigrum = assay: Field test for weed control in a corn field; conditions: 150 g a.i./ha, 30 days after treatment
How it was run: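 In a corn field trial based on GB/T 17980.42-2000, 10% emulsifiable concentrates diluted in water were sprayed at 150 g(a.i.)/ha at the 2 to 5 leaf stage of corn. Each treatment used 20 m^2 plots and was repeated 4 times, with 25% mesotrione oil dispersion as the reference agent. Solanum nigrum damage was scored on a 1-9 scale against blank control plots.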

goosegrass = assay: Field test for weed control in a corn field; conditions: 150 g a.i./ha, after treatment
How it was run: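 In this field trial in corn, run per GB/T 17980.42-2000, test agents prepared as 10% emulsifiable concentrates were applied in water as sprays at 150 g(a.i.)/ha at the 2- to 5-leaf corn stage. Each treatment covered 20 m^2 and was repeated 4 times. Goosegrass control was scored 1-9 relative to weed remaining in blank control areas.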

Amaranthus retroflexus [3] = assay: Field test for weed control in a corn field; conditions: 150 g a.i./ha, 30 days after treatment
How it was run: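 Post-emergence control of Amaranthus retroflexus was assessed in corn plots using the GB/T 17980.42-2000 method. Emulsifiable concentrates (10%) in water were applied by spraying at the 2- to 5-leaf crop stage on 20 m^2 plots, four replicates each, alongside a mesotrione 25% oil dispersion reference. Herbicidal activity was scored on 1-9 levels by weed amount relative to blank control areas.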

Chenopodium album = assay: Field test for weed control in a corn field; conditions: 150 g a.i./ha, after treatment
How it was run: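 Field weed-control testing in corn, run per GB/T 17980.42-2000, scored Chenopodium album on a 1-9 level scale, where each level matches a percentage range of weed remaining relative to the blank control area. Sprays of 10% emulsifiable concentrates in water delivered 150 g(a.i.)/ha at the corn 2-leaf to 5-leaf stage on 20 m^2 plots, four replicates each. Mesotrione 25% oil dispersion served as reference.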

Convolvulus arvensis = assay: Field test for weed control in a corn field; conditions: 150 g a.i./ha, after treatment
How it was run: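 Post-emergence herbicidal activity on Convolvulus arvensis was scored in a corn field on a 1-9 scale, based on symptoms and damage severity. Each level corresponds to the weed remaining as a percentage of the blank control area. Sprays of 10% emulsifiable concentrate at 150 g(a.i.)/ha went on at the corn 2–5 leaf stage, with four replicates of 20 m^2 per treatment.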

Acalypha australis = assay: Field test for weed control in a corn field; conditions: 150 g a.i./ha, after treatment
How it was run: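 Herbicidal activity against weeds was assessed in corn plots by the GB/T 17980.42-2000 method. Corn at the 2–5 leaf stage received water sprays of 10% emulsifiable concentrates at 150 g(a.i.)/ha, four repeats per treatment over 20 m^2. A 25% mesotrione oil dispersion was the reference. Damage symptoms and severity were rated on levels 1-9 relative to weeds in the blank control area.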

Digitaria sanguinalis [4] = assay: Field test for weed control in a corn field; conditions: 150 g a.i./ha, after treatment
How it was run: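 Field trial in a corn field following GB/T 17980.42-2000. Test compounds were formulated as 10% emulsifiable concentrates, diluted in water and sprayed post-emergence at 150 g(a.i.)/ha when corn had 2 to 5 leaves, with 4 replicates on 20 m^2 plots. Control of Digitaria sanguinalis was scored on a 1-9 scale based on weed damage relative to the untreated blank area.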

Humulus scandens [5] = assay: Herbicidal activity test for indoor pre-emergence soil treatment; conditions: 150 g a.i./ha, visual inspection 21 days after treatment
How it was run: (§1)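 Pre-emergence soil spray per NY/T 1155.3-2006: weed seeds sown in moistened neutral sandy loam (organic content ≤2%), covered with 0.5–2.0 cm soil, then sprayed 24 h later with a water-diluted 10% emulsifiable concentrate at 150 g(a.i.)/ha. Visual rating after 21 days on a 1–9 scale.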

Broadleaf weed = assay: Post-emergence herbicidal activity test in a paddy field; design: key: level scale; higher level = more weed left vs blank control; conditions: 150 g a.i./ha (penoxsulam control 250 g(a.i.)/h)
How it was run: (§2)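 Efficacy was visually estimated 15 and 30 days after spraying, grading weed coverage relative to an untreated neighbouring plot (level 2 = 0 to 2.5%, level 9 = 67.6 to 100%). Treatments were 150 g(a.i.)/ha from 10% emulsifiable concentrates applied at the 4-5 leaf rice stage, four repeats of 50 m^2 each.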

Gramineae = assay: as above; design: key: level scale; higher level = more weed left vs blank control; conditions: 150 g a.i./ha (penoxsulam control 250 g(a.i.)/h)
How it was run: as §2

Cyperaceae = assay: as above; design: key: level scale; higher level = more weed left vs blank control; conditions: 150 g a.i./ha (penoxsulam control 250 g(a.i.)/h)
How it was run: as §2

green bristlegrass [6] = assay: Herbicidal activity test for indoor pre-emergence soil treatment; design: key: level 1-9; higher = more weed remaining vs blank control; conditions: 150 g a.i./ha, visual inspection 21 days after treatment
How it was run: as §1

Barnyard grass [7] = assay: as above; design: key: level 1-9; higher = more weed remaining vs blank control; conditions: 150 g a.i./ha, visual inspection 21 days after treatment
How it was run: as §1

Piemarker [8] = assay: as above; design: key: level 1-9; higher = more weed remaining vs blank control; conditions: 150 g a.i./ha, visual inspection 21 days after treatment
How it was run: as §1

green bristlegrass [9] = assay: Herbicidal activity test for indoor post-emergence spraying on stems and leaves; design: key: grade level by weed remaining vs blank control, e.g. 5 = 10.1-15%; conditions: 150 g a.i./ha, visual inspection 21 days after treatment
How it was run: (§3)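 Following national standard NY/T 1155.4-2006, seedlings raised in a greenhouse receive stem-and-leaf spraying after emergence; 21 days on, surviving weed is compared by eye with the blank control area and assigned a graded level (e.g., level 6 = 15.1–25%).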

Barnyard grass [10] = assay: as above; design: key: grade level by weed remaining vs blank control, e.g. 5 = 10.1-15%; conditions: 150 g a.i./ha, visual inspection 21 days after treatment
How it was run: as §3

Humulus scandens [11] = assay: as above; design: key: grade level by weed remaining vs blank control, e.g. 5 = 10.1-15%; conditions: 150 g a.i./ha, visual inspection 21 days after treatment
How it was run: as §3

Amaranthus retroflexus [12] = assay: as above; design: key: grade level by weed remaining vs blank control, e.g. 5 = 10.1-15%; conditions: 150 g a.i./ha, visual inspection 21 days after treatment
How it was run: as §3

Piemarker [13] = assay: as above; design: key: grade level by weed remaining vs blank control, e.g. 5 = 10.1-15%; conditions: 150 g a.i./ha, visual inspection 21 days after treatment
How it was run: as §3

Digitaria sanguinalis [14] = assay: as above; design: key: grade level by weed remaining vs blank control, e.g. 5 = 10.1-15%; conditions: 150 g a.i./ha, visual inspection 21 days after treatment
How it was run: as §3

Amaranthus retroflexus [15] = assay: Herbicidal activity test for indoor pre-emergence soil treatment; design: key: 1-9 levels; higher = more weed remaining vs blank control; conditions: 150 g a.i./ha, visual inspection 21 days after treatment
How it was run: as §1

Digitaria sanguinalis [16] = assay: as above; design: key: 1-9 levels; higher = more weed remaining vs blank control; conditions: 150 g a.i./ha, visual inspection 21 days after treatment
How it was run: as §1

SMILES | Post-emergence weed control effect, Portulaca oleracea (Portulaca oleracea) | Post-emergence weed control effect, Green bristlegrass (green bristlegrass [1]) | Post-emergence weed control effect, Barnyard grass (Barnyard grass [2]) | Post-emergence weed control effect, Nutgrass flatsedge (nutgrass flatsedge) | Post-emergence weed control effect, Solanum nigrum (Solanum nigrum) | Post-emergence weed control effect, Goose grass (goosegrass) | Post-emergence weed control effect, Amaranthus retroflexus (Amaranthus retroflexus [3]) | Post-emergence weed control effect, Chenopodium album (Chenopodium album) | Post-emergence weed control effect, Convolvulus arvensis (Convolvulus arvensis) | Post-emergence weed control effect, Acalypha australis (Acalypha australis) | Post-emergence weed control effect, Digitaria sanguinalis (Digitaria sanguinalis [4]) | Herbicidal Activity Humulus scandens (Humulus scandens [5]) | Herbicidal activity 15 days after treatment Broadleaf weed (Broadleaf weed) | Herbicidal activity 30 days after treatment Broadleaf weed (Broadleaf weed) | Herbicidal activity 15 days after treatment Gramineae (Gramineae) | Herbicidal activity 30 days after treatment Gramineae (Gramineae) | Herbicidal activity 15 days after treatment Cyperaceae (Cyperaceae) | Herbicidal activity 30 days after treatment Cyperaceae (Cyperaceae) | Herbicidal Activity Green bristlegrass (green bristlegrass [6]) | Herbicidal Activity Barnyard grass (Barnyard grass [7]) | other results
COc1ccccc1C(=O)NCc1cccc(C)c1 [Compound A14, 2-methoxy-N-(3-methylbenzyl)benzamide] | 1 | 1 | 1 | 2 (equivalent to 0 to 2.5% of the weed in the blank control area) | 2 (equivalent to 0 to 2.5% of the weed in the blank control area) | 1 | 1 | 1 | 1 | 2 (equivalent to 0 to 2.5% of the weed in the blank control area) | 2 (equivalent to 0 to 2.5% of the weed in the blank control area) | 3 (equivalent to 2.6 to 5% of the weed in the blank control area) | 1 | 2 (equivalent to 0 to 2.5% of the weed in the blank control area) | 1 | 2 (equivalent to 0 to 2.5% of the weed in the blank control area) | 1 | 2 (equivalent to 0 to 2.5% of the weed in the blank control area) | 1 | 2 (equivalent to 0 to 2.5% of the weed in the blank control area) | Herbicidal Activity Piemarker (Piemarker [8]): 1; Herbicidal Activity Green bristlegrass (green bristlegrass [9]): 1; Herbicidal Activity Barnyard grass (Barnyard grass [10]): 2 (equivalent to 0 to 2.5% of the weed in the blank control area); Herbicidal Activity Humulus scandens (Humulus scandens [11]): 1; Herbicidal Activity Amaranthus retroflexus (Amaranthus retroflexus [12]): 1; Herbicidal Activity Piemarker (Piemarker [13]): 1; Herbicidal Activity Digitaria sanguinalis (Digitaria sanguinalis [14]): 1; Herbicidal Activity Amaranthus retroflexus (Amaranthus retroflexus [15]): 2 (equivalent to 0 to 2.5% of the weed in the blank control area); Herbicidal Activity Digitaria sanguinalis (Digitaria sanguinalis [16]): 2 (equivalent to 0 to 2.5% of the weed in the blank control area)
COc1ccccc1C(=O)NCc1cccc(F)c1 [Compound A01, N-(3-fluorobenzylamine)-2-methoxybenzamide] | 1 | 1 | 2 (equivalent to 0 to 2.5% of the weed in the blank control area) | 2 (equivalent to 0 to 2.5% of the weed in the blank control area) | 2 (equivalent to 0 to 2.5% of the weed in the blank control area) | 2 (equivalent to 0 to 2.5% of the weed in the blank control area) | 1 | 1 | 1 | 2 (equivalent to 0 to 2.5% of the weed in the blank control area) | 2 (equivalent to 0 to 2.5% of the weed in the blank control area) | 4 (equivalent to 5.1 to 10% of the weed in the blank control area) | 1 | 2 (equivalent to 0 to 2.5% of the weed in the blank control area) | 2 (equivalent to 0 to 2.5% of the weed in the blank control area) | 2 (equivalent to 0 to 2.5% of the weed in the blank control area) | 1 | 2 (equivalent to 0 to 2.5% of the weed in the blank control area) | 1 | 1 | Herbicidal Activity Piemarker (Piemarker [8]): 3 (equivalent to 2.6 to 5% of the weed in the blank control area); Herbicidal Activity Green bristlegrass (green bristlegrass [9]): 1; Herbicidal Activity Barnyard grass (Barnyard grass [10]): 1; Herbicidal Activity Humulus scandens (Humulus scandens [11]): 1; Herbicidal Activity Amaranthus retroflexus (Amaranthus retroflexus [12]): 1; Herbicidal Activity Piemarker (Piemarker [13]): 1; Herbicidal Activity Digitaria sanguinalis (Digitaria sanguinalis [14]): 1; Herbicidal Activity Amaranthus retroflexus (Amaranthus retroflexus [15]): 3 (equivalent to 2.6 to 5% of the weed in the blank control area); Herbicidal Activity Digitaria sanguinalis (Digitaria sanguinalis [16]): 1
